From publication PMC7616191 (Molecular pharmacology, 2018) come the findings set out here.

Structures are written as SMILES.

This assay deals with T1, human muscarinic acetylcholine M1 receptor (hM1 mAChR) (Homo sapiens, UniProt P11229).
T1 sequence (P11229 1-460): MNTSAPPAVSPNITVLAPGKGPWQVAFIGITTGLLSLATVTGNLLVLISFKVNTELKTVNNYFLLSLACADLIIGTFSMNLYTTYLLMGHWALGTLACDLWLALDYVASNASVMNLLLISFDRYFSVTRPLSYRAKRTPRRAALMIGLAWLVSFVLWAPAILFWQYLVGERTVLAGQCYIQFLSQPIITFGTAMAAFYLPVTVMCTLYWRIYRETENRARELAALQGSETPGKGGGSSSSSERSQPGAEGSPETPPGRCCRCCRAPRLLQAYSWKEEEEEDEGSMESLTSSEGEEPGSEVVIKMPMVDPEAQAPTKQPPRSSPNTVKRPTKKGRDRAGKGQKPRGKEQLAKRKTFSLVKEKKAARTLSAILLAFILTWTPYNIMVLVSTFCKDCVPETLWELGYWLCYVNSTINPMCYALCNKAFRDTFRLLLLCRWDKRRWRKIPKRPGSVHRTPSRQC
Briefly: IP1 accumulation. It is filed as cell-based. Particulars: vehicle-pretreated control; orthosteric agonist; […]°C, […] h, pH […].

For `C[N+](C)(C)CC#CCN1CCCC1=O` [Oxo-M], the “pEC50^a” value is recorded as 6.08 ± 0.13.
